A word on the IC50: it is the point on the concentration scale where inhibition reaches its midpoint.

The values below come from article PMC11820700, “Antioxidant, Enzyme-Inhibitory and Antimicrobial Activity of Underutilized Wheat and Maize Crop Residues” (Plants, 2025).

For one test, the system named is α-glucosidase. The conditions noted are these: cited from earlier work.
Another test deals with α-amylase. Conditions: cited from earlier work.
On the set-up of test [1]: method as in Glišić et al. (2024) [4]. The conditions noted are these: ref Glišić et al. (2024) [4]; cited from earlier work.
For test [2] the following is noted: cited from earlier work; for DPPH radical inhibition: concentrations 50–1000 µg/mL, ref Jeong et al. (2010) [24]. In general terms: Loss of DPPH colour is used to gauge radical scavenging.
Test [3] is described as follows: TRC (total reducing capacity) ferric reducing power assay. Conditions: L-ascorbic acid equivalents.
Details of test [4]: method as in Glišić et al. (2024) [4]. The conditions noted are these: ref Glišić et al. (2024) [4]; cited from earlier work. The source holds these as a separate data set.
Details of test [5]: method as in Glišić et al. (2024) [4]. The conditions noted are these: ref Glišić et al. (2024) [4]; cited from earlier work. The source holds these as a separate data set.
For test [6] the following is noted: cited from earlier work.
Test [7] concerns Salmonella abony NCTC 6017. Nature of the test: Broth microdilution MIC. Type of test: cell-based. Conditions: Salmonella enterica, NCTC6017; Salmonella abony; 24 h; read-out: Minimal Inhibitory Concentrations MICs. In general terms: In broth dilution the organism is exposed to a series of concentrations in liquid medium.
The target in another test is tyrosinase from mushroom. In kind it is biochemical.
The test system of test [8] is Staphylococcus aureus ATCC 6538. The experiment in a line: Broth microdilution MIC. Type of test: cell-based. The conditions noted are these: ATCC6538, 24 h, extracts 62.5–1000, compounds 31.25–500 µg/mL tested, read-out: Minimal Inhibitory Concentrations MICs.
Test [9] relates to Pseudomonas aeruginosa ATCC 9027. The experiment in a line: Broth microdilution MIC. In kind it is cell-based. Conditions: ATCC9027, 24 h, read-out: Minimal Inhibitory Concentrations MICs.
Test [10] concerns the target acetylcholinesterase (AChE) from Electrophorus electricus (Electrophorus electricus, UniProt O42275). The experiment in a line: biochemical.
The test system of test [11] is Enterococcus faecalis ATCC 29212. The experiment in a line: Broth microdilution MIC. In kind it is cell-based. The conditions noted are these: for Minimal Inhibitory Concentrations MICs: 24 h; for MIC: ATCC29212, 24 h, read-out: Minimal Inhibitory Concentrations MICs.
Test [12] relates to Bacillus subtilis ATCC 6633. Nature of the test: Broth microdilution MIC. In kind it is cell-based. The conditions noted are these: for Minimal Inhibitory Concentrations MICs: 24 h; for MIC: ATCC6633, 24 h, read-out: Minimal Inhibitory Concentrations MICs.
Test [13] can be described thus: DPPH free radical scavenging assay.
Test [14] concerns the target butyrylcholinesterase (BChE) from equine serum (Equus caballus, UniProt P81908). Nature of the test: biochemical. In kind it is biochemical.
Test [15] deals with Escherichia coli ATCC 8739. Nature of the test: Broth microdilution MIC. The conditions noted are these: ATCC8739, 24 h, read-out: Minimal Inhibitory Concentrations MICs. In kind it is cell-based.
Test [16] in a line: ABTS free radical scavenging assay.
Test [17] can be described thus: FRAP ferric reducing power assay.
The subject of test [18] is Klebsiella pneumoniae NCIMB 9111. The experiment in a line: Broth microdilution MIC. The conditions noted are these: NCIMB9111, 24 h, read-out: Minimal Inhibitory Concentrations MICs. In kind it is cell-based.
In the next test the target is tyrosinase. Conditions: cited from earlier work.
In test [19] the test system is Candida albicans ATCC 10231. Nature of the test: Broth microdilution MIC. Type of test: cell-based. Conditions: for Minimal Inhibitory Concentrations MICs: 48 h; for MIC: ATCC10231, 48 h, read-out: Minimal Inhibitory Concentrations MICs.
Test [20] deals with T1, α-amylase from porcine pancreas (Sus scrofa, UniProt P00690).
T1 construct: purchased Merck KGaA (Darmstadt, Germany) type VI-B (catalogue number not given); host or cells: porcine pancreas
T1 sequence (P00690 16-511): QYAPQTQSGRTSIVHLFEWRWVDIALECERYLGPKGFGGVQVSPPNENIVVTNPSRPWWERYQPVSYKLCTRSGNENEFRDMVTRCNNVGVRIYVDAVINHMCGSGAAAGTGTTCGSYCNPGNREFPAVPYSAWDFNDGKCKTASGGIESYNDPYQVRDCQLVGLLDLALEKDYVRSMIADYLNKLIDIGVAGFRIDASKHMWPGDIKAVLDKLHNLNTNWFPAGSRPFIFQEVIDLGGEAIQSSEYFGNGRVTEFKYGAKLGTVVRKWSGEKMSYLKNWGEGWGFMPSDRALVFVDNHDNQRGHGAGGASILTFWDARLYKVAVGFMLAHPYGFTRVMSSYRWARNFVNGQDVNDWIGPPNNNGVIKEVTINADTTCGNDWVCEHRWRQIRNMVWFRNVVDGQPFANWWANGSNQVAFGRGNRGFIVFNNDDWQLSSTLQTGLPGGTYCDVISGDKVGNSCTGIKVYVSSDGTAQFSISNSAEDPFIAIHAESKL
The experiment in a line: biochemical. Conditions: read-out: α-amilase IC50 (converted).

Test [21] has as its target acetylcholinesterase (AChE). Conditions: cited from earlier work.
The subject of a further test is Gram-negative bacteria. Also on record: method as in Lou et al. (2012) [44]. The conditions noted are these: ref Lou et al. (2012) [44]; cited from earlier work.
The subject of test [22] is clinical isolates of both Gram-positive and Gram-negative bacteria. Also on record: method as in Alves et al. (2013) [45]. The conditions noted are these: ref Alves et al. (2013) [45]; cited from earlier work.
Test [23] deals with three tested Gram-positive bacteria. The arrangement: method as in Lou et al. (2012) [44]. Conditions: ref Lou et al. (2012) [44]; cited from earlier work.
Where [24] appears, read: isolated from medicinal rice (Oryza sativa L.), ref Mohanlal et al. (2011) [7].
[25] abbreviates: mg/mL figure given in parentheses beside mM, ref Jeong et al. (2012) [29].

Converted amounts (≈) assume the structure as drawn. “And” between values parts separate entries of the source, which are not always exact repeats. Equal values may be shown once. Read-outs that look alike come from different tables or passages of the source. Marks after values point to notes of the source that are not given here.

Sequence of acetylcholinesterase (AChE) from Electrophorus electricus (O42275 24-633 limits assumed): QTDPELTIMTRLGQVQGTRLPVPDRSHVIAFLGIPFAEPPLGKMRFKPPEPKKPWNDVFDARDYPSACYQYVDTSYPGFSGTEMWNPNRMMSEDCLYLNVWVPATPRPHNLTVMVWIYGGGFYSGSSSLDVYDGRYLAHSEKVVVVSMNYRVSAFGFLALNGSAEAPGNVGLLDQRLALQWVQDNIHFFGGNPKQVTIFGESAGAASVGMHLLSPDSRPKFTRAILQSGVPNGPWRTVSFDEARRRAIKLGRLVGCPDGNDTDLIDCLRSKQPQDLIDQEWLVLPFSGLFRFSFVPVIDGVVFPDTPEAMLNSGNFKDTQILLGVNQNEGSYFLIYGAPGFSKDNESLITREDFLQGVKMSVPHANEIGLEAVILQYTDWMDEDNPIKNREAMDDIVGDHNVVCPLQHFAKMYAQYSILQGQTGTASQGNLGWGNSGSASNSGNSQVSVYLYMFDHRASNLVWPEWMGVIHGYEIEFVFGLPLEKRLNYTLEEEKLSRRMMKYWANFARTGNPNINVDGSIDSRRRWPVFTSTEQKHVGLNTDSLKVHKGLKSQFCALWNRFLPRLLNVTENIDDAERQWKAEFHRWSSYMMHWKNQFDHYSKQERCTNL
Sequence of butyrylcholinesterase (BChE) from equine serum (P81908 whole entry, looked up): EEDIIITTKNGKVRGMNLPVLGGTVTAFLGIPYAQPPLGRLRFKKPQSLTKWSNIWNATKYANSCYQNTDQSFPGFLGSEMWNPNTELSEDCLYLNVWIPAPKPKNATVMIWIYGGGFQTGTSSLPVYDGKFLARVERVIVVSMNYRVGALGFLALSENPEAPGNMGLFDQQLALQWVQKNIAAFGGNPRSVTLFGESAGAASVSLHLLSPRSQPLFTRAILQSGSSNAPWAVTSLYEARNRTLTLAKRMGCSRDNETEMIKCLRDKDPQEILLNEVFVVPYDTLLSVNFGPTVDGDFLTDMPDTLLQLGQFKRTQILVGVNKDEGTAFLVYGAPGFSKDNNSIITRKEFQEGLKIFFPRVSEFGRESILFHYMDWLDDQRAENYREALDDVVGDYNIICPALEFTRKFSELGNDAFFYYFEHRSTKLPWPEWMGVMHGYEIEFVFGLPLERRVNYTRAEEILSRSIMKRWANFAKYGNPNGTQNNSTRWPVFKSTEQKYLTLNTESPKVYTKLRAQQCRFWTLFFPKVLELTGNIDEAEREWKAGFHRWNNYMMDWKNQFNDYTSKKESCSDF

With `C[C@H]1O[C@H](O[C@H]2[C@H](O)[C@@H](O)[C@@H](O[C@H]3[C@H](O)[C@@H](O)C(O)O[C@@H]3CO)O[C@@H]2CO)[C@H](O)[C@@H](O)[C@@H]1N[C@H]1C=C(CO)[C@@H](O)[C@H](O)[C@H]1O` (stereo partly shown) [ACB, acarbose, reference compound], the α-glucosidase inhibition is given as 62% with α-glucosidase (at 0.44 mg/mL, ref [33]) and 70.2% in the test on α-glucosidase (at 1.5 mg/mL, ref [29]). The α-amylase inhibition with α-amylase (at 1.5 mg/mL, ref [29]) is recorded as 59.3%.

For the compound `Cc1cc(C(C)(C)C)c(O)c(C(C)(C)C)c1` [BHT, butylated hydroxytoluene], the results for the “ABTS IC50” value in test [1] and in test [6] (ref Yang et al. (2024) [20]) were 0.040 ± 0.002 ^e mg/mL and 140 µg/mL, respectively. The DPPH radicals scavenged in test [2] (at 0.2 mg/mL, ref [27]) is recorded as 47.32%. Also, the DPPH radical inhibition in test [2] is listed as 73.9–90.7%. For the same compound, the “DPPH IC50” value in test [2] (methanol extracts from unfermented straw, ref Đorđević et al. (2019) [12]) is 50 µg/mL; in test [2] (ref Yang et al. (2024) [20]), 150 µg/mL; in test [4] it was 0.038 ± 0.001 ^e mg/mL. In [3], the TRC is 615.02 ± 38.87 ^c mg L-AAE/g. The FRAP in test [5] is 0.41 µmol Fe^2+/g and 0.41 ± 0.03 ^c µmol Fe^2+/g and 0.41 ± 0.03 ^d µmol Fe^2+/g. The ABTS radicals scavenged in test [6] (at 0.2 mg/mL, ref [27]) is listed as 50.32%.

As to `O=C1O[C@H]([C@@H](O)CO)C(O)=C1O` [L-AA, L-ascorbic acid], in test [1], the “ABTS IC50” value is given as 0.0316 ± 0.0003 ^e mg/mL. Further, the “DPPH IC50” value in [2] (ref Barnawi et al. (2023) [28]) is 2.51 µg/mL; in [2] (ref Dewi et al. (2021) [15]) it was 3.55 µg/mL; in test [2] (ref Elemosho et al. (2021) [26]), 4630 µg/mL; in test [4] it was 0.0057 ± 0.0003 ^f mg/mL. In test [5], the FRAP was 1.618 ± 0.004 ^e µmol Fe^2+/g and 1.618 ± 0.004 ^b µmol Fe^2+/g.

On to `COc1cc(-c2cc(=O)c3c(O)cc(O)cc3o2)cc(OC)c1O` [TRN, 5,7,4′-trihydroxy-3′,5′-dimethoxyflavone], for which the MIC was more than 500 µg/mL in [7]; 62.5 µg/mL (≈ 189 µM) in [8]; more than 500 µg/mL in test [9]; 31.2 µg/mL (≈ 94.6 µM) in test [11]; 31.2 µg/mL (≈ 94.6 µM) in [12]; more than 500 µg/mL in [15]. Moreover, the MIC in test [18] was more than 500 µg/mL; in [19], 250 µg/mL (≈ 757 µM). The “Tyr IC50” value on tyrosinase from mushroom is reported as “did not exhibit inhibitory activity within the tested concentration range”. Besides, the IC50 in test [10] was 8.72 mM; in [14], 1.67 mM; in test [20], 5.84 mM. Besides, the “Minimal Inhibitory Concentrations MICs” value in test [11] came out at 31.25 µg/mL; in test [12], 31.25 µg/mL; in test [19], 250 µg/mL. In addition, the “DPPH IC50” value in [13] is 1.71 ± 0.15 ^b mg/mL; in [2] (setting [24]) it was 90.39 µg/mL. The “ABTS IC50” value in test [16] is 0.46 ± 0.01 ^a mg/mL. Moreover, in test [17], the FRAP was 0.34 ± 0.01 ^d µmol Fe^2+/g. Besides, the TRC in [3] is 312.08 ± 12.44 ^d mg L-AAE/g. Further, the “tyrosinase IC50” value on tyrosinase (ref [38]) is 269.46 µg/mL.

For the compound `COc1ccc2cc3[n+](cc2c1OC)CCc1cc2c(cc1-3)OCO2` [berberine, reference compound], the “AChE IC50” value in test [21] (ref Sim et al. (2014) [39]) is given as 1.5 µg/mL.

Take `O=C(O)/C=C/c1ccc(O)cc1` [p-CA, p-coumaric acid]: the MIC is more than 500 µg/mL in test [7]; 62.5 µg/mL (≈ 381 µM) in [8]; more than 500 µg/mL in test [9]; 31.2 µg/mL (≈ 190 µM) in test [11]; 31.2 µg/mL (≈ 190 µM) in [12]; more than 500 µg/mL in test [15]. Moreover, the MIC in the test on Gram-negative bacteria is 10 to 80 µg/mL; in [18], more than 500 µg/mL; in [22], not below 1000 µg/mL; in [19], 250 µg/mL (≈ 1520 µM); in test [23], 20 µg/mL (≈ 122 µM). Also, the concentration for half-maximal inhibition (IC50) is 63.3 mM in test [10], more than 30 mM on α-glucosidase (ref Jeong et al. (2012) [29]), 167 mM in test [20] and more than 30 mM on α-amylase (ref Jeong et al. (2012) [29]). Moreover, the “Minimal Inhibitory Concentrations MICs” value in [11] turned out to be 31.25 µg/mL; in test [12], 31.25 µg/mL; in test [19] it was 250 µg/mL. Further, the “DPPH IC50” value in [13] is recorded as 2.96 ± 0.16 ^a mg/mL. Also, in test [16], the “ABTS IC50” value is on record as 0.0256 ± 0.0012 ^c mg/mL. The DPPH radical inhibition in [2] was 10.3–26.9%. In addition, the FRAP in test [17] is listed as 0.92 ± 0.02 ^c µmol Fe^2+/g. In addition, the TRC is listed as 1810.89 ± 116.14 ^b mg L-AAE/g in test [3] and 1810.89 mg L-AAE/g in test [3] (listed as p-Coumaric acid). In addition, the “α-glucosidase IC50” value was more than 4920 µg/mL on α-glucosidase (setting [25]); 90.8 µg/mL on α-glucosidase (ref Nile and Park (2014) [34]). In addition, on α-amylase (setting [25]), the “α-amylase IC50” value is more than 4920 µg/mL.

In the case of `O=c1c(O)c(-c2ccc(O)c(O)c2)oc2cc(O)cc(O)c12` [quercetin], the “DPPH IC50” value in [2] (setting [24]) is listed as 42.98 µg/mL.

On to `COc1cc(C(O)C(CO)Oc2c(OC)cc(-c3cc(=O)c4c(O)cc(O)cc4o3)cc2OC)ccc1O` (stereo not drawn) [salcolin A, tricin 4′-O-(threo-β-guaiacylglyceryl)ether], for which the “DPPH IC50” value in test [2] (setting [24]) is recorded as 208.1 µg/mL.

As for `COc1cc([C@H](O)[C@H](CO)Oc2c(OC)cc(-c3cc(=O)c4c(O)cc(O)cc4o3)cc2OC)ccc1O` [salcolin B, tricin 4′-O-(erythro-β-guaiacylglyceryl)ether], the “DPPH IC50” value in [2] (setting [24]) is on record as 352.04 µg/mL.

With `O=C(O)CC1C(=O)Nc2cccc(O)c21` (stereo not shown) [tasselin A, 4-hydroxy-1-oxindole-3-acetic acid], the IC50 on tyrosinase (ref Wille and Berhow (2011) [37]) was 0.75 mM.

Take `O=c1cc(-c2cc(O)c(O)c(O)c2)oc2cc(O)cc(O)c12` [tricetin]: the “AChE IC50” value in [21] (ref Kuppusamy et al. (2017) [40]) is 18.28 µg/mL.
